One series has as its target Histone deacetylase 1 (Homo sapiens, UniProt Q13547). Description: Inhibition of full-length recombinant human C-terminal GST tagged HDAC1 expressed in Sf9 insect cells using aminoluciferin peptide substrate at 10 to 100 nM preincubated for 3 hrs followed by substrate addition and measured after 30 mins by HDAC-Glo I/II chemiluminescence assay. Conditions: dose 10-100 nM, time 3.5 hrs.

In series [1] the target is Histone deacetylase 4 (Homo sapiens) (UniProt P56524). Description: Inhibition of recombinant human HDAC4 using fluorogenic substrate preincubated for 3 hrs followed by substrate addition and measured after 30 mins by fluorescence analysis. As to conditions: time 3.5 hrs.
Chain of Histone deacetylase 4 (Homo sapiens) (P56524 whole entry): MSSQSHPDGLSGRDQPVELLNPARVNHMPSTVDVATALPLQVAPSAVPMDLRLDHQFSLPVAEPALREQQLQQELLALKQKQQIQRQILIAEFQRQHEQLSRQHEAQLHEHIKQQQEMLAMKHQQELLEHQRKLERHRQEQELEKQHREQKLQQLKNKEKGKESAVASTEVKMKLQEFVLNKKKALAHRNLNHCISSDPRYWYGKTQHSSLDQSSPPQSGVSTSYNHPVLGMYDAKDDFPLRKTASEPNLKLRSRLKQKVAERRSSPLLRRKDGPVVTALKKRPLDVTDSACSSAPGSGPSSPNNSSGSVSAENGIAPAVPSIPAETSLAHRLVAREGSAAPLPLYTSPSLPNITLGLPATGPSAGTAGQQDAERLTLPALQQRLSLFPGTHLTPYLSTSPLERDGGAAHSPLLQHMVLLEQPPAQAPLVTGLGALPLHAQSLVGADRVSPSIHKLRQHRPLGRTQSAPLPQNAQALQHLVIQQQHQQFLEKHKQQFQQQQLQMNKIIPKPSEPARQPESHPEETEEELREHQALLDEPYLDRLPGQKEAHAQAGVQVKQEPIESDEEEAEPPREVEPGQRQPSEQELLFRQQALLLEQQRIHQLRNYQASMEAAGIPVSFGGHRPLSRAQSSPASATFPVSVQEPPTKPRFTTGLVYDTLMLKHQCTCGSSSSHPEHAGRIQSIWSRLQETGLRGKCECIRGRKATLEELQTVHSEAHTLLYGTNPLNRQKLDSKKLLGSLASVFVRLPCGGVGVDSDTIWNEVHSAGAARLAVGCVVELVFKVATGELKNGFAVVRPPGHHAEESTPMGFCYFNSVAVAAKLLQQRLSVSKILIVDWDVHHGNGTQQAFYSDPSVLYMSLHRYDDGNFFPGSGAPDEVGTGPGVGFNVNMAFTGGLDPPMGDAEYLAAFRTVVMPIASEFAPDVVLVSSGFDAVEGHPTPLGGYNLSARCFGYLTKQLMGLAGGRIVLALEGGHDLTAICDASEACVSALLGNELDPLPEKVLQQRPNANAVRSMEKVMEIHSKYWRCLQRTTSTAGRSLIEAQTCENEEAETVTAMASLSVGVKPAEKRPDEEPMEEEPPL
In series [2] the target is Histone deacetylase 5 (Homo sapiens) (UniProt Q9UQL6). The series is described as follows: Inhibition of recombinant human HDAC5 using fluorogenic substrate preincubated for 3 hrs followed by substrate addition and measured after 30 mins by fluorescence analysis. Conditions: time 3.5 hrs.
Chain of Histone deacetylase 5 (Homo sapiens) (Q9UQL6 whole entry): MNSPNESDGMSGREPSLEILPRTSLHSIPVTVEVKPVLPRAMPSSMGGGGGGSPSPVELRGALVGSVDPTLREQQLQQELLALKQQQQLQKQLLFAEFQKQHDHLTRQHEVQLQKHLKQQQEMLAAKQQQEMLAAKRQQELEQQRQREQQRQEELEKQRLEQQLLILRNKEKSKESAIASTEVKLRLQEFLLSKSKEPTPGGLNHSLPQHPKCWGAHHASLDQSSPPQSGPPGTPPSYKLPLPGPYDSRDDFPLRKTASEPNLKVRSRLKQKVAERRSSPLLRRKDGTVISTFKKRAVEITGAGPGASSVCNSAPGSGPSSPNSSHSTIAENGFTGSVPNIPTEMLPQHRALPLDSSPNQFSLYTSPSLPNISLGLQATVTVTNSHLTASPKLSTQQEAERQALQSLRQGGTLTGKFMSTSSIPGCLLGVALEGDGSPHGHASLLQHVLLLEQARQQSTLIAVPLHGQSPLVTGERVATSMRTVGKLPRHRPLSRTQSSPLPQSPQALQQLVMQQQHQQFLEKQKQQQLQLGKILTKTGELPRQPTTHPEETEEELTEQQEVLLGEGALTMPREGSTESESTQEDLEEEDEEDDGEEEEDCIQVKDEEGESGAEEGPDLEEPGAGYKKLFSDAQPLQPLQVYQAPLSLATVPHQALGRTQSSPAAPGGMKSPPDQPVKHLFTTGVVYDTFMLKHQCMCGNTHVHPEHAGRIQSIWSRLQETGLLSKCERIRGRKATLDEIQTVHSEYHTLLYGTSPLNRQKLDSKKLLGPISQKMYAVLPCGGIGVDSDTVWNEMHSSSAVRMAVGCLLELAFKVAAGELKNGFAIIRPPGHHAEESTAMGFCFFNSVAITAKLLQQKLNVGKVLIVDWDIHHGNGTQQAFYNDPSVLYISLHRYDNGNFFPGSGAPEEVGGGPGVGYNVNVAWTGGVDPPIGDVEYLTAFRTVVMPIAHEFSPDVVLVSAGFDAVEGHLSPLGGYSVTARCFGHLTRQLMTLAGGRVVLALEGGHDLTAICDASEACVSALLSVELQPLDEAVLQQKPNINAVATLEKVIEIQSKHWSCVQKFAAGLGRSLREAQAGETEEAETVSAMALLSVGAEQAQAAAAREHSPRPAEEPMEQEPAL
For series [3], the target named is T1, Protein deacetylase HDAC6 (Homo sapiens) (UniProt Q9UBN7).
T1 sequence (whole entry): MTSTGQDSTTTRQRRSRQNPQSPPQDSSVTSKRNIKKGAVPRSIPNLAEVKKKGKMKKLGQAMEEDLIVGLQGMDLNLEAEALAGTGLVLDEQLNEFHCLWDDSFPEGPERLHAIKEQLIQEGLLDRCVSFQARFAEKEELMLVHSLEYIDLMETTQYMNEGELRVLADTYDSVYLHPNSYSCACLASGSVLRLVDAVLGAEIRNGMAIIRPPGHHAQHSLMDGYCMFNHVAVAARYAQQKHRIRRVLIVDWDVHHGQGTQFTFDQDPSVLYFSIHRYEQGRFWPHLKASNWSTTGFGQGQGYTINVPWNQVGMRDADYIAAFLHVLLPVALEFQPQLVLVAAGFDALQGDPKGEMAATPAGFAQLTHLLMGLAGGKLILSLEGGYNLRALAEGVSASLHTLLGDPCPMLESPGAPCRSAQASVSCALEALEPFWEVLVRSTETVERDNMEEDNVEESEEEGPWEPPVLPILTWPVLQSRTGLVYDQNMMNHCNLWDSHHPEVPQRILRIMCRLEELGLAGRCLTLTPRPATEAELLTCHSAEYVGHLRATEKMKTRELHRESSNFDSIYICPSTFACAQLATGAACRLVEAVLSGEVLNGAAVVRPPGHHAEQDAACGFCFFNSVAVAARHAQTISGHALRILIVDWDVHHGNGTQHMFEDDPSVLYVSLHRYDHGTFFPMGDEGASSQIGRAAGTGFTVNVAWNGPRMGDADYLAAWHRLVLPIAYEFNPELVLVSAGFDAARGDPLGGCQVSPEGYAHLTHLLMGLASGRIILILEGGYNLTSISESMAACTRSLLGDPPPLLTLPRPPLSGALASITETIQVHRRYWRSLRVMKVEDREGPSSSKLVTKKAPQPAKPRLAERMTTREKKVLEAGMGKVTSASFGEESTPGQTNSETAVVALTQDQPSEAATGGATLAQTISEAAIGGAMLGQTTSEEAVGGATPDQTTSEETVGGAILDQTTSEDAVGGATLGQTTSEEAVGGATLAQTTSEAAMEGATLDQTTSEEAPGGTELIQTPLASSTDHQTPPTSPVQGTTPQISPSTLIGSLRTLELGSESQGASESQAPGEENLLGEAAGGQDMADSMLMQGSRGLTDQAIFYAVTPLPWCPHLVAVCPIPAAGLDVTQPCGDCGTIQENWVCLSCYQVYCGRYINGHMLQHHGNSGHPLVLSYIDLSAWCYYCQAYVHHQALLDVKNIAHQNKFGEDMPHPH
The series is described as follows: Inhibition of full-length recombinant human C-terminal GST tagged HDAC6 expressed in Sf9 insect cells using aminoluciferin peptide substrate preincubated for 3 hrs followed by substrate addition and measured after 30 mins by HDAC-Glo I/II chemiluminescence assay. As to conditions: time 3.5 hrs.

Series [4] is described as follows: Cytotoxicity against human HMEC cells assessed as inhibition of cell viability incubated for 3 days by AlamarBlue based fluorescence analysis. (The colour change of resazurin is a common sign of viable cells or microbes.)
Series [5] deals with MCF7. The series is described as follows: Upregulation of TP53INP1 gene expression in human MCF7 cells at 2 uM incubated for 24 hrs by RT-qPCR analysis. It counts as functional, cell-based. (In general: Real-time PCR tracks product formation cycle by cycle.)
The test system of series [6] is MCF7. Description: Upregulation of DDIT4 gene expression in human MCF7 cells at 2 uM incubated for 24 hrs by RT-qPCR analysis. It counts as functional, cell-based.
The test system of series [7] is MCF7. Description: Downregulation of E2F8 gene expression in human MCF7 cells at 2 uM incubated for 24 hrs by microarray analysis. The class given is functional, cell-based.
Series [8] concerns the target T2, Histone deacetylase 2 (Homo sapiens, UniProt Q92769). Conditions: Sf9, time 60.0 min.
The target in series [9] is T2, Histone deacetylase 2. Conditions: Sf9, time 60.0 min. This is another data set of the same source.
For series [10], the target named is Histone deacetylase (Homo sapiens) (UniProt Q13547+O15379+Q9UBN7+Q92769+Q9UQL6+Q8WUI4+Q9BY41+Q96DB2+P56524+Q9UKV0+Q969S8). As to conditions: MCF7, dose 1.0 µM, time <= 48.0 hrs.
Series [11] concerns the target T2, Histone deacetylase 2. Description: Inhibition of full-length recombinant human C-terminal GST tagged HDAC2 expressed in Sf9 insect cells assessed as second order […] rate constant (k2) using Ac-LGK(Ac)-AMC substrate and measured for 60 mins at 2 mins interval by fluorescence analysis.
The target in series [12] is T2, Histone deacetylase 2. Description: Inhibition of full-length recombinant human C-terminal GST tagged HDAC2 expressed in Sf9 insect cells assessed as second order dissociation rate constant (k-2) using Ac-LGK(Ac)-AMC substrate and measured for 60 mins at 2 mins interval by fluorescence analysis.
The test system of the next series is N2a. Description: Induction of neurite outgrowth in mouse Neuro2a cells assessed as percentage of neurite-bearing cells at 20 to 2000 nM incubated for 48 hrs by microscopy. Conditions: dose 20-2000 nM. It counts as functional, cell-based.
Another series deals with Mus musculus. The series is described as follows: Neuroprotective activity in BALB/c mouse assessed as increase in spine density in granule neuron dendrites at 1 uM,SCi administered through osmotic minipumps incubated for 48 hrs by bright-field microscopy. The class given is functional, organism-based.

Active and inactive are the calls of the source. The rule behind the calls is not given here. A value given as a limit tells only on which side of the number the result lay.

Broadly, the IC50 is the concentration needed to halve the response being measured.

Chain of Histone deacetylase 1 (Q13547 whole entry): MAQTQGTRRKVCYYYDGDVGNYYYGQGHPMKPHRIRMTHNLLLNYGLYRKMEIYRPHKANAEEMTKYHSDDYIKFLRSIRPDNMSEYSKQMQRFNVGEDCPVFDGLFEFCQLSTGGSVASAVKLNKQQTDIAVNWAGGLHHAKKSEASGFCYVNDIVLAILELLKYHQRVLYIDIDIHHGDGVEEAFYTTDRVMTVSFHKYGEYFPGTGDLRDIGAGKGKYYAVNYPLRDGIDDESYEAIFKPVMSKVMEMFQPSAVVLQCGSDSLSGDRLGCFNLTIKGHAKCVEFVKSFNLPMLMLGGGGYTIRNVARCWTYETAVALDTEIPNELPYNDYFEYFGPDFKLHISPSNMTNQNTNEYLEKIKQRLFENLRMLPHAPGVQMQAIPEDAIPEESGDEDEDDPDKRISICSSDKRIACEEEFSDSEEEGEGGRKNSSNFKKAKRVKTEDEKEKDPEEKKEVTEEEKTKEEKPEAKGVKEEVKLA
T2 sequence (Q92769 whole entry): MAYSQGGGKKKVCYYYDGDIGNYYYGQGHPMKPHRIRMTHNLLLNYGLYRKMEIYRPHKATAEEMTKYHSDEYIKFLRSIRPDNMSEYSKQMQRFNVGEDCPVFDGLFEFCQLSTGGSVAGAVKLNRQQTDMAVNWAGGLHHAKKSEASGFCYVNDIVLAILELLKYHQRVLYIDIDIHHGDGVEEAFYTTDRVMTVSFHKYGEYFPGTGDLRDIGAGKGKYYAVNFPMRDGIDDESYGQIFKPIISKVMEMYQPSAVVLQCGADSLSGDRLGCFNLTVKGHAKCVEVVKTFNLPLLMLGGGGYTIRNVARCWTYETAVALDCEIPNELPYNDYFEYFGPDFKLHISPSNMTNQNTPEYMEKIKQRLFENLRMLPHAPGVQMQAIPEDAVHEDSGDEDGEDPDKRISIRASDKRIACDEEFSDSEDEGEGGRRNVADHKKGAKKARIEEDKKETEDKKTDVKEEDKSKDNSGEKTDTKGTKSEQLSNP

Regarding `Nc1ccc(-c2cccs2)cc1NC(=O)c1ccc(-c2cn(C[S+]([O-])c3ccccc3)nn2)cc1` (stereo not given), the inhibition result on Histone deacetylase 1 is “Active”. Besides, the inhibition result in [1], in [2] and in series [3] was “inactive” in each case. Moreover, the half-maximal inhibitory concentration (IC50) at 3 days in [4] was greater than 10 µM. Moreover, the result in the series with MCF7 [5], with MCF7 [6] and in the series with MCF7 [7] was Active. The same molecule showed a ka at Histone deacetylase 2 [8] of 5330 M⁻¹ s⁻¹. The molecule also displayed a Kdiss at Histone deacetylase 2 [9] of 0.000117 s⁻¹. Moreover, the TDI result in [10] was “Active”.
Regarding `Nc1ccc(-c2cccs2)cc1NC(=O)c1ccc(-c2cn(CS(=O)(=O)c3ccccc3)nn2)cc1`, the inhibition result at Histone deacetylase 1 was “Active”. Besides, the inhibition result in [1], in series [2] and in series [3] was “inactive” each time. Moreover, on Histone deacetylase 2 [11], the ka is 683 M⁻¹ s⁻¹. Besides, the Kdiss at Histone deacetylase 2 [12] turned out to be 3.33e-05 s⁻¹. For the same molecule, in series [4], the IC50 at 3 days was 9.85 µM. The outcome in the series with MCF7 [5], with MCF7 [6], in the series on MCF7 [7], in the series on N2a and with Mus musculus was Active. Besides, the TDI entry in series [10] is “Active”.
On to `Nc1ccc(-c2cccs2)cc1NC(=O)c1ccc(-c2cn(CCc3ccccn3)nn2)cc1`, for which the inhibition entry on Histone deacetylase 1 was “Active”. In addition, the inhibition entry in series [1], in series [2] and in series [3] was “inactive” each time. In series [4], the concentration for half-maximal inhibition (IC50) at 3 days stood at 4.35 µM. Further, the result in the series with MCF7 [5], in the series on MCF7 [6] and in the series on MCF7 [7] was Active. On Histone deacetylase 2 [8], this molecule returned a ka of 8830 M⁻¹ s⁻¹. At Histone deacetylase 2 [9], this molecule yielded a Kdiss of 8.33e-05 s⁻¹. Also, the TDI entry in series [10] is “Active”.

(Values after ChEMBL document CHEMBL5390237, “Discovery of Selective Histone Deacetylase 1 and 2 Inhibitors: Screening of a Focused Library Constructed by Click Chemistry, Kinetic Binding Analysis, and Biological Evaluation” (J Med Chem, 2023).)
